These results are taken from PMC6994419, “UDP-N-acetyl-α-D-galactosamine:polypeptide N-acetylgalactosaminyltransferase from the snail Biomphalaria glabrata – structural reflections” (Glycoconjugate Journal, 2019).

The target of one assay is T1, ΔppGalNAcT (Biomphalaria glabrata, UniProt S5S833).
T1 construct: catalytic part only: amino acids 1-26 and the lectin domain (477-600) removed; Sf9 insect cells, purified
The assay can be described thus: GalNAc transfer to acceptor peptide, reversed-phase HPLC at […] nm. To be noted: 40 nmol UDP-GalNAc in 20 μl, 10 mM MnCl2, 50 mM MES pH 7.0, 37 °C, 90 min, acceptor peptide 20 μg. The class given is biochemical.

Another assay addresses T2, Bge-ppGalNAcT (Biomphalaria glabrata, UniProt S5S833).
T2 construct: without cytoplasmic tail and transmembrane domain (amino acids 1-26 removed); catalytic plus lectin domain
The assay is described as above. The class given is biochemical. Particulars: 40 nmol UDP-GalNAc in 20 μl, 10 mM MnCl2, 50 mM MES pH 7.0, 37 °C, 90 min, acceptor peptide 20 μg.

T1 sequence (S5S833 27-476, stated change not applied): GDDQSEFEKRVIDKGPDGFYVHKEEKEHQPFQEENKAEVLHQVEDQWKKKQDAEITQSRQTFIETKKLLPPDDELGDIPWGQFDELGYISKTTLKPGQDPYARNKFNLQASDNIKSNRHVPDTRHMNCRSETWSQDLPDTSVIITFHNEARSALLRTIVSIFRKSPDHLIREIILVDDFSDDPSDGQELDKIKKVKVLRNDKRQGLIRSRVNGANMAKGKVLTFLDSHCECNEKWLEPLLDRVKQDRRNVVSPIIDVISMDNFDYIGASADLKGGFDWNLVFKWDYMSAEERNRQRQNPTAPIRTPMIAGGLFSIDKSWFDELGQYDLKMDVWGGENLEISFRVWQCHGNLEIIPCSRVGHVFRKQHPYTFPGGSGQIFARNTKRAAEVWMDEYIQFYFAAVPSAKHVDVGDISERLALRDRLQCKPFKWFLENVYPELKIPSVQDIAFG
T2 sequence (S5S833 27-600): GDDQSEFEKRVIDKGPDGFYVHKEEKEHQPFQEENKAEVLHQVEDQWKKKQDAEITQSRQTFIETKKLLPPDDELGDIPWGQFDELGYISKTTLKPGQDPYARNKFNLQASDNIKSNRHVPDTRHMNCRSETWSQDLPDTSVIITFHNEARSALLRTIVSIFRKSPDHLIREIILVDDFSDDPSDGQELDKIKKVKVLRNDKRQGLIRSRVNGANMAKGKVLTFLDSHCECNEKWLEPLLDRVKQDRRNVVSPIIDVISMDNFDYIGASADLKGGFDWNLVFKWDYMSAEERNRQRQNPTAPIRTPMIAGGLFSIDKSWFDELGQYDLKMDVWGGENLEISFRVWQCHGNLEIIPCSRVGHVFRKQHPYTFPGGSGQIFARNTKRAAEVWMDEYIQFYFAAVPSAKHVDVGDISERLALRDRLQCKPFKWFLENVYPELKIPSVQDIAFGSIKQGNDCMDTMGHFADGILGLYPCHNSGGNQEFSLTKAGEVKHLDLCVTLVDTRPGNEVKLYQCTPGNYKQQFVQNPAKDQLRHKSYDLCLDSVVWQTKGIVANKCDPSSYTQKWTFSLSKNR

On to `O=c1ccn([C@@H]2O[C@H](COP(=O)(O)OP(=O)(O)O)[C@@H](O)[C@H]2O)c(=O)[nH]1` [UDP], for which the “activity at 0.05-0.75 mM UDP” value at ΔppGalNAcT was “No significant differences between the enzyme expressed with lectin domain and the version without”; on Bge-ppGalNAcT it was “Only for UDP an inhibition effect was experimentally observed”.
